Assay results published in patent US11241480B2, “Methods for modulation of dietary and microbial exposure with compositions comprising an EGFR ligand” (Washington University, priority 2017, dated 2022).

Experiments:
colon draining MLN = experiment: MLN culture cytokines and colon H/E histology on DOL35; format: in vivo; conditions: DOL35 mice; for colon pathology (H/E sections): EGFRi DOL14 and 16 or DOL24 and 26, intracolonic EGF DOL10-21
Method: Isolation of cellular populations and flow cytometry: Small intestines or colons were harvested, rinsed with PBS, and Peyer's patches or colonic patches were removed. Epithelial cellular populations were released by incubating for 15 min three times in a 37° C. rotating incubator in HBSS media (BioWhittaker, Walkersville, Md.) containing 5 mM EDTA as previously described. Isolation of splenic, MLN and lamina propria (LP) cellular populations was performed as previously described. In some experiments, single cell suspensions of MLN were cultured in cell culture media for three days as previously described. The first wash of HBSS+EDTA was used to isolate goblet cells as below. SI and colonic LP-MNPs were identified as 7AAD^−, CD45^+, CD11c^+, MHCII^+for flow cytometric sorting. Goblet cells were identified as CD45^−, CD24^−CK18^+, UEA-I^+for flow cytometric sorting as previously described. For intracellular antigens and cytokines, cells were fixed and permeabilized overnight and stained per the manufacturers recommendations (eBioscience). Flow cytometry was performed with a FACScan cytometer (BD Biosciences, San Jose, Calif.) retrofitted with additional lasers. Data acquisition was performed using CellQuest (BD Biosciences) and Rainbow (Cytek,Fremont, Calif.) or FlowJo software (Tree Star, Ashland, OR). Data analysis was performed on a Macintosh computer running FlowJo software.
Measurement of cytokines, EGF, and immunoglobulins: Cytokines and EGF were measured using the using ELISAs for EGF (R&D systems), phosphorylated MAPK, phosphorylated EGFR, IL17 (eBioscience), IFNγ and IL-10, (R&D systems) per the manufacturers recommendations. Luminal EGF was measured in stomach, SI, and colonic contents; to isolate contents the stomach was opened and contents was added to 1 ml PBS. […] Phosphorylated MAPK, and phosphorylated EGFR was measured on epithelial cells from the SI or colon isolated by one 15 minute wash with HBSS+EDTA as described above. Cytokines were measured on supernatants from cultured MLNs.

[1] = system: colonic LP Tregs (FoxP3+); experiment: Colonic LP Treg/iTreg populations by flow cytometry after early-life manipulation; format: in vivo, mice
Method: EGFRi treatment: Mice were injected with 500 μg/kg tyrphostin AG1478 (an inhibitor of EGFR phosphorylation) in the neonatal, post-neonatal, or weaned phase on DOLs noted in the text or figure legends.
Isolation of cellular populations and flow cytometry: Sls or colons were harvested, rinsed with PBS, and Peyer's patches or colonic patches were removed. Epithelial cellular populations were released by incubating for 15 min three times in a 37° C. rotating incubator in HBSS media (BioWhittaker, Walkersville, Md.) containing 5 mM EDTA, and splenic and LP cellular populations were isolated as described. SI and colonic APCs were identified as 7AAD^−, CD45^+, CD11c^+, MHCII^+ for flow cytometric sorting. FoxP3 subpopulations were identified as 7AAD^−, CD45^+, CD3^+, CD4^+, FoxP3^+, and either RORγt^+ or Helios^+. For intracellular antigens and cytokines, cells were fixed, permeabilized overnight, and stained per the manufacturers recommendations (eBioscience). Flow cytometry was performed with a FACScan cytometer (BD Biosciences, San Jose, Calif.) retrofitted with additional lasers. Data acquisition was performed using CellQuest (BD Biosciences) and Rainbow (Cytek, Fremont, Calif.) or FlowJo software (Tree Star, Ashland, Oreg.). Data analysis was performed on a Macintosh computer running FlowJo software.

[2] = Serum cytokines and immunoglobulins by ELISA/multiplex after Ova rechallenge; format: in vivo, mice; conditions: dietary Ova DOL 0-30; EGFRi DOL 6 and 8 or DOL 24 and 26
Method: Measurement of cytokines, EGF, and immunoglobulins: Cytokines were measured using the MILLIPLEX MAP Mouse Cytokine/Chemokine Magnetic Bead Panel (see e.g., FIG. 16D; EMD Millipore) or using ELISAs for EGF (R&D systems), IL13 (eBioscience), Eotaxin (R&D systems), IgE (eBiosciences), and MCPT1 (eBioscience) per the manufacturers recommendations. An ELISA comprised of Ova (Sigma-Aldrich A5503) for capture, and monoclonal anti-IgE antibody conjugated to alkaline phosphatase (Southern Biotech 1110-04) for detection, was used to measure Ova specific IgE.

Row | Molecule | inflammatory cytokine production in the colon draining MLN (colon draining MLN; EGFRi post-weaning (DOL24 and 26)) | colon pathology (H/E sections) (colon draining MLN) | colonic LP Treg population, pattern and timing ([1]; EGFRi in neonatal phase, DOL 6 and 8) | colonic LP Treg population, pattern and timing ([1]; EGFRi in post-neonatal phase, DOL 14 and 16) | colonic LP Treg population, pattern and timing ([1]; EGFRi on DOL 24 and 26 (beyond weaning)) | persistence of the diminished iTreg population ([1]; after manipulation of colonic GAPs (EGFRi neonatal or weaning phase)) | other immunoglobulins, Th1 and Th17 cytokines in serum [2] | serum Th2 mediators and IgE [2]
1 | COc1cc2ncnc(Nc3cccc(Cl)c3)c2cc1OC [EGFRi, tyrphostin AG1478] | results in inflammatory cytokine production in the colon draining MLN | does not induce overt pathologic changes | early peaks in colonic LP Tregs; these peaks rapidly decreased and were not maintained | resembled the endogenous Treg population of non-manipulated animals | rapidly lost the colonic Treg population | at least 8 months | did not have elevations in other immunoglobulins or prototypic Th1 or Th17 cytokines | markedly elevated serum levels of Th2 mediators, and global and antigen-specific IgE
2 | EGF: recombinant murine EGF (Shenandoah); EGFR ligand, given luminally or intracolonically |  | no overt pathology |  |  |  |  |  | 
